Source: ChEMBL document CHEMBL1201862, “PubChem BioAssay data set” (2004)
The source made the active and inactive calls.

Assays:
[1] = NIH3T3 cell viability loss – ATP luminescence, mouse fibroblasts, counter-screen, dose response (AID 2010); assay type: functional, cell-based;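 note: cells exposed to compound for about 90 hours before reading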
[2] = antiviral protection against BTV-induced cell death – arbovirus, BSR cells, confirmation (AID 1250); assay type: functional;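 note: protection from viral cytopathic effect measured as cell viability by ATP luminescence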
[3] = Trypanosoma cruzi growth suppression in host cells – NIH3T3 host cells, beta-gal luminescence, confirmation (AID 2044); assay type: functional, cell-based;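 note: intracellular parasites grown in NIH/3T3 mouse fibroblasts as host cells; luminescent beta-galactosidase reporter signal from transgenic T. cruzi replicating inside host cells; inhibitors lower the luminescence signal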
Aspartyl aminopeptidase = biological target: T1, Aspartyl aminopeptidase (Plasmodium falciparum 3D7, UniProt Q8I2J3); assay: Counterscreen for inhibitors of M1 and M17 aminopeptidases: QFRET-based biochemical high throughput dose response assay for inhibitors of the Plasmodium falciparum M18 Aspartyl Aminopeptidase (PFM18AAP). [Related PubChem assays: 1619 (Screening assay (M17LAP inhibitors).), 1445 (Screening assay (M1AAP inhibitors).)]
T1 sequence (Q8I2J3 whole entry): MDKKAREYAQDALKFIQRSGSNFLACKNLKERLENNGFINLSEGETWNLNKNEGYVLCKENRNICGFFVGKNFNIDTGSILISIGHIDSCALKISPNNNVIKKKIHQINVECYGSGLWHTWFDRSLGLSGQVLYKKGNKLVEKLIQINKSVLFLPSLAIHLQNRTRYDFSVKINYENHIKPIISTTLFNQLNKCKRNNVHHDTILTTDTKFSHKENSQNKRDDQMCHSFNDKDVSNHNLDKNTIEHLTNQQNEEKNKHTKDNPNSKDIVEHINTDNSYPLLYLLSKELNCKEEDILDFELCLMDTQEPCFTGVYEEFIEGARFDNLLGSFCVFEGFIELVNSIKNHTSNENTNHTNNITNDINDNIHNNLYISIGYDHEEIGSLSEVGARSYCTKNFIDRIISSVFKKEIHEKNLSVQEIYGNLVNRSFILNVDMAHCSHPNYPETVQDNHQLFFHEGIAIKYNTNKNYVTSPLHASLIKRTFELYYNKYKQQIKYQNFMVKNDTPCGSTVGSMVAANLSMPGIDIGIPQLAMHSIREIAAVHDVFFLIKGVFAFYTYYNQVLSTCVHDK

Leucine aminopeptidase = biological target: T2, Leucine aminopeptidase (Plasmodium falciparum 3D7, UniProt Q8IL11); assay: P. falciparum M17LAP inhibitors, primary screen, biochemical, fluorogenic H-Leu-NHMec substrate, 1536-well (AID 1619); assay type: functional
T2 sequence (Q8IL11 whole entry): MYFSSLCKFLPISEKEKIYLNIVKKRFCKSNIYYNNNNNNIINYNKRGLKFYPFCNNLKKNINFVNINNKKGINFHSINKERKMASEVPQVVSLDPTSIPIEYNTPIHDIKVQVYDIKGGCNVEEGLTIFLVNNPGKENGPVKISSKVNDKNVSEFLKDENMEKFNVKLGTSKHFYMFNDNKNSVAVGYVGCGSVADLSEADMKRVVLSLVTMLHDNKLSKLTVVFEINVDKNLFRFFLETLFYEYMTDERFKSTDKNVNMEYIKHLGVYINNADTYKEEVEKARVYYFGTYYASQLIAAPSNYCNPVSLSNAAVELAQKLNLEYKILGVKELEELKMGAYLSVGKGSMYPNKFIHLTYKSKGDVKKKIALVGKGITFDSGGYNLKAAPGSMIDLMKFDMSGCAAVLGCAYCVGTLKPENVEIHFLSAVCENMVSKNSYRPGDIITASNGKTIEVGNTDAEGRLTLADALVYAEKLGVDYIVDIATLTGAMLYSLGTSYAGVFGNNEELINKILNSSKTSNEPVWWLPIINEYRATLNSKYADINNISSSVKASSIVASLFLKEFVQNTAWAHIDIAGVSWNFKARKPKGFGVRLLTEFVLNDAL

Procathepsin L = Procathepsin L (Homo sapiens, UniProt P07711); assay: CTSL1 protease inhibition – biochemical, QFRET, 1536-well, counter-screen for M1/M17 aminopeptidase inhibitor project, dose response (AID 2214)
Chain of Procathepsin L (P07711 whole entry): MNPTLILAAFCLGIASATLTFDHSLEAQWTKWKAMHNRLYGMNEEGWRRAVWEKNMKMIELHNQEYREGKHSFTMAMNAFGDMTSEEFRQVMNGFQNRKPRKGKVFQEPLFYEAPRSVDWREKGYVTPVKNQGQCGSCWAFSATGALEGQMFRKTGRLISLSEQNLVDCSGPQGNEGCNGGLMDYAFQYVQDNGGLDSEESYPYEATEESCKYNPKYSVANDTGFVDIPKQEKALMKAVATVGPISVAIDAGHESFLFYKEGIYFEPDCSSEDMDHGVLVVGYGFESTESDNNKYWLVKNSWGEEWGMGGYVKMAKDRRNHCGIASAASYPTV

SMILES | EC50 [1] | IC50 [2] | EC50 [3] | IC50 (Aspartyl aminopeptidase) | IC50 (Leucine aminopeptidase) | IC50 (Procathepsin L)
S=C(NCc1ccccc1)N1CCn2cccc2C1c1cccnc1 (stereo not given) | > 60 µM (inconclusive) | 22.1 µM (active) | 2.95 µM (active) | – | – | –
CCc1ccc(Nc2nnc(SC3CCOC3=O)s2)cc1 (stereo not given) | – | – | – | > 73.5 µM (not active) | 2.64 µM (active) | > 59.6 µM (not active)
COC(=O)c1c(-c2ccco2)csc1NC(=O)C1CC=CCC1C(=O)O (stereo not given) | – | – | – | > 73.5 µM (not active) | 1.39 µM (active) | > 59.6 µM (not active)
COC(=O)/C=C/c1sc2nc(C)cc(C)c2c1/N=C/N(C)C | – | 34.4 µM (active) | – | – | – | –
